We go through 9 molecules from PubChem BioAssay (NCI).

Among the test systems are DLD-1 colon; DMS 273 small cell lung; HOP-18 NSCLC; KM20L2 colon; LXFL 529 NSCLC; M19-MEL melanoma; SNB-78 CNS; XF 498 CNS; RXF-631 renal.
Common to all, as to experiment: inhibition of tumour cell growth, NCI panel, 48 h

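Protocol summary: plate cells (96-well), add compound at 5 concentrations, incubate 48 h, interpolate endpoints linearly. The concentration for full growth arrest is given as TGI.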 Some results are limits rather than exact numbers.

Take `COc1ccccc1C1C(Cl)C(=O)N1n1cnc2ccccc2c1=O` (stereo not drawn): the TGI in the assay with DLD-1 colon, in the assay with DMS 273 small cell lung, in the assay with HOP-18 NSCLC, in the assay on KM20L2 colon, in the assay on LXFL 529 NSCLC and in the assay on M19-MEL melanoma was > 100 µM throughout. The TGI in the assay with SNB-78 CNS and with XF 498 CNS was > 100 µM each time.
`CC(=O)OC1CC2CCN3C(=O)c4cc5c(cc4[C@H](C1OC(C)=O)C23)OCO5` (stereo partly drawn): the TGI in the assay with DLD-1 colon, with DMS 273 small cell lung, in the assay on KM20L2 colon, with LXFL 529 NSCLC, with M19-MEL melanoma and in the assay on SNB-78 CNS was > 100 µM each time.
For the molecule `Cc1[nH]c(=O)nc2c1C(NCCCN(C)C)c1cc(Cl)ccc1N2` (stereo not drawn), the TGI in the assay on DLD-1 colon came out at 35.3 µM; with DMS 273 small cell lung, 25.3 µM; in the assay with KM20L2 colon, 24.4 µM; in the assay on LXFL 529 NSCLC, 30.6 µM; in the assay on M19-MEL melanoma, 12.9 µM; with SNB-78 CNS, 33.2 µM. The TGI in the assay on XF 498 CNS is 30.8 µM.
Take `NC1=NC2=c3ccccc3=C(c3cnccn3)C2(c2cnccn2)c2ccccc21` (stereo not drawn): the TGI in the assay with DLD-1 colon, with DMS 273 small cell lung, in the assay with HOP-18 NSCLC, with KM20L2 colon, in the assay with M19-MEL melanoma and in the assay with SNB-78 CNS was > 100 µM throughout. In the assay on XF 498 CNS, the TGI was > 100 µM.
Turning to `CC(C)(C)OC(=O)N[C@H]1CC(O)c2ccccc2N(CC(=O)O)C1=O` (stereo partly drawn), the TGI in the assay with DLD-1 colon, with DMS 273 small cell lung, in the assay on HOP-18 NSCLC, in the assay on KM20L2 colon, in the assay with LXFL 529 NSCLC and with M19-MEL melanoma was > 100 µM in each case. The TGI in the assay with RXF-631 renal and with XF 498 CNS was > 100 µM throughout.
On to `COC(=O)[C@H](Cc1ccccc1)NC(=O)/C(=C/C(C)C)NC(=O)[C@H](CCSC)NC=O`, for which the TGI in the assay with DLD-1 colon, in the assay on DMS 273 small cell lung, in the assay with HOP-18 NSCLC, with KM20L2 colon, with LXFL 529 NSCLC and with M19-MEL melanoma was > 100 µM throughout. Besides, the TGI in the assay with XF 498 CNS is > 100 µM.
On to `O=C(CC(CC(=O)Oc1c(Br)cc(Br)cc1C(=O)O)C(=O)Oc1c(Br)cc(Br)cc1C(=O)O)Oc1c(Br)cc(Br)cc1C(=O)O`, for which the TGI in the assay with DLD-1 colon, in the assay on DMS 273 small cell lung, in the assay on KM20L2 colon, with LXFL 529 NSCLC, in the assay with M19-MEL melanoma and in the assay on SNB-78 CNS was > 100 µM in each case. The molecule further showed a TGI with XF 498 CNS of 38.9 µM.
As for `CC1=NN(C(=O)c2ccccc2O)C(=O)/C1=C/c1cccc(O)c1`, the TGI in the assay with DLD-1 colon, with KM20L2 colon, in the assay with LXFL 529 NSCLC, in the assay on M19-MEL melanoma, with SNB-78 CNS and in the assay on XF 498 CNS was > 100 µM in each case.
On to `O=C(C=C1SCCS1)/C=C\c1ccc(Cl)cc1`, for which the TGI in the assay on DLD-1 colon, with DMS 273 small cell lung, with LXFL 529 NSCLC, in the assay with M19-MEL melanoma, with RXF-631 renal and in the assay on SNB-78 CNS was > 100 µM in each case. The TGI with XF 498 CNS was > 100 µM.
